Data from US20240197814A1, “MATERIALS AND METHODS FOR THE PREVENTION AND TREATMENT OF VIRAL DISEASES” (priority 2021, published 2024).
Read-outs that look alike come from different tables or passages of the source.

Columns and labels:
Format in all cases: cell-based
HIV-1 IIIB = assay: In vitro HIV-1 prevention model, TZM-bl-FcRI cells, β-galactosidase; settings: TZM-bl-FcRI cells, 0.1, 0.25 and 1 μM peptide, 48 h
Experimental: Sixty-seven (67) compounds from a library of peptides included in TABLE 1 were evaluated for inhibition of HIV-1 IIIB in TZM-bl-FcRI cells. The compounds were tested at three (3) concentrations with six (6) replicates each for efficacy and toxicity for 48 hours in this model. Virus was diluted 1:128, based on a previous titration. The test article was dissolved in DMSO to generate a stock solution, and dosing solutions were prepared by dilution of the stock solution using the appropriate volume of PBS. These dosing solutions were mixed with predetermined volumes of the virus suspension, based on the titration data, and were incubated for 30 min at 37° C./5% CO2.
Following incubation, the virus/compound mixture was added to pre-plated TZM-bl-FcRI cells and the necessary volume of assay media (based on the titration). The culture was incubated for six hours under the above conditions and then washed to remove residual virus and compound. The cultures were incubated for an additional 48 hours at 37° C./5% CO2 before measuring β-galactosidase in the wells using a chemiluminescent endpoint.
The study was carried out using a 96-well format. The first row of 12 wells was used as a negative control (cells with no virus or test compound added). […] Peptide 346-001 served as a positive control on each plate, such that three other test compounds could be evaluated per plate. […]

[1] = test system: SARS-CoV-2 (2019-nCoV/USA-WA1/2020 strain); settings: 60% confluent VERO E6, 48 h
[2] = test system: SARS-CoV-2 (2019-nCoV/USA-WA1/2020 strain); settings: 80% confluent VERO E6, 48 h
[3] = test system: SARS-CoV-2 (2019-nCoV/USA-WA1/2020 strain); settings: VERO E6, 48 h

**Q.** For “Ac-SWLRDIWDWICEVLSDFKC(succinimido-propionylaminoethyl-mPEG2K)-NH2 (Ac-SWLRDIWDWICEVLSDFKC(succinimido‑propionylaminoethyl‑mPEG2K)-NH2) [Peptide 346-064]”, which “potency against HIV-1 compared with peptide 346-001” value (HIV-1 IIIB) is on record?
**A.** increase in potency

**Q.** Which “dose response curve shape” value [1] does the source give for GSWLRDIWDWICEVLSDFK [Peptide 346-003] here?
**A.** unexpected and unusual dose response curve shape

**Q.** Which dose-response relationship [2] does the source give for SIWRDWVDLICEFLSDWK [Peptide 346-007] here?
**A.** steep dose response relationship

**Q.** And the “potency relative to the other peptides tested” value [2]?
**A.** ca. double

**Q.** Which results are given for “SWLRDIWDWICEVLSDFK [Peptide 346-001, virucidal amphipathic α-helical peptide derived from the hepatitis C virus (HCV) NS5A membrane anchor domain]”?
**A.** reduction on viral copy numbers ([3]; 50 μM dosing concentration): > 5 orders of magnitude; reduction on viral copy numbers ([3]; 125 μM dosing concentration): > 7 orders of magnitude; potency against SARS-CoV-2 infection [3]: high potency
